In patent publication US10488417B2, “Compounds for use as imaging agents” (United Arab Emirates University, priority 2014, dated 2019):

Key:
α-synuclein [1] = molecular target: T1, α-synuclein (Homo sapiens, UniProt P37840); experiment: α-synuclein fibrillation, Thioflavin-T (Th-T) binding assay; type: biochemical; settings: 25 μM α-synuclein; for inhibition at 50 µM: compound 50 μM
T1 construct: GST (N, cleaved yes); made in house; host or cells: E. coli BL21
Description: The protein purity was estimated to be >95% using an SDS gel. Ginsenoside, Rb1, stock solutions (10 mM) were prepared in 100% DMSO, and the final amount of DMSO in the sample solutions was 1%. Samples of 25 μM α-synuclein in PBS were aged alone or with Rb1 at various molar ratios (Rb1:α-synuclein molar ratios of 4:1, 2:1 and 1:1). The samples were placed in 1.5 ml sterile polypropylene tubes, drops of mineral oil were added to prevent sample evaporation, and the tubes were then sealed with parafilm and incubated at 37° C. for 5 days with continuous shaking at 800 rpm in a Thermomixer (Eppendorf). Samples were collected at the indicated time points, and a Thioflavin-T assay was performed immediately at each time point, while the rest of the samples were stored at −80° C. until needed for further analyses.
α-Synuclein fibril formation was monitored by Th-T binding assay. Th-T is a fluorescent dye that interacts with fibrils containing a β-sheet structure. A total of 10 μL of each sample was diluted in 40 μL of Th-T in PBS. Fluorescence was then measured in a 384-well, untreated black micro-well plate (Nunc, Denmark) using a microplate reader (Victor X3 2030, Perkin Elmer) with the excitation and emission wavelengths set at 450 and 486 nm, respectively. To allow for background fluorescence, the fluorescence intensity of a blank PBS solution was subtracted from all readings.
α-Synuclein solution at a concentration of 25 μM was incubated at 37° C. with continuous shaking for 5 days, leading to fibril formation, which was monitored by Th-T fluorescence at regular time intervals. α-Synuclein was incubated with each of Gn Rb1, salvianolic acid B and dihydromyricetin at molar ratios of 4:1, 2:1 and 1:1 (molar ratio Compound: α-synuclein) with a constant α-synuclein concentration of 25 μM.

α-synuclein [2] = molecular target: T1, α-synuclein; experiment: Seeding polymerization assay of α-synuclein monomers (Th-T, TEM); type: biochemical; settings: for inhibition of the seeding process / inhibition at 50 µM: 6 hours, 100 μM monomeric α-synuclein, 2 μM seeds; for inhibition at 50 µM: read-out: inhibition of the seeding process
Description: The aggregation of monomeric α-synuclein with or without seeding was performed as described elsewhere. The seeds were prepared by fragmenting the mature α-synuclein fibrils by sonication to obtain short fibrils, which were employed as ‘seeds’. Briefly, monomeric α-synuclein at a concentration of 100 μM was seeded with 2 μM of seeds and incubated in the presence or absence of the compounds (10 μM or 50 μM) at 37° C. for 6 hours with continuous shaking. The fibrillization was monitored by Th-T binding assay as described above.
To assess the effect of salvianolic acid B, dihydromyricetin and Gn Rb1 on the seeding of α-synuclein aggregation, the compounds were added at concentrations of 10 or 50 μM to 100 μM monomeric α-synuclein containing seeds at a final concentration of 2 μM. The mixture was then incubated with continuous mixing at 37° C. for 6 hours.

[3] = molecular target: T2, preformed α-synuclein fibrils (Homo sapiens, UniProt P37840); experiment: α-synuclein disaggregation assay on preformed fibrils (Th-T); type: biochemical; settings: 25 μM preformed fibrils; for effect on preformed α-synuclein fibrils (Th-T counts): ratios 6:1, 4:1, 2:1, 48 hours, 37° C.
T2 construct: GST (N, cleaved yes); made in house; host or cells: E. coli BL21
Description: α-Synuclein solution in PBS (pH 7.4) was aggregated at a concentration of 25 μM as indicated above. The resulting aggregated α-synuclein was incubated either alone or with Gn Rb1 or dihydromyricetin at various molar ratios (compound: α-synuclein molar ratios of 6:1, 4:1 and 2:1). It should be noted that for the purpose of the experiment, the concentration of α-synuclein taken into account was the concentration of fresh α-synuclein. The samples were incubated at 37° C. for 48 hours on a thermomixer with continuous shaking at 800 rpm. Samples were collected at regular time points, and Th-T fluorescence was measured immediately.
Due to their high efficiency to inhibit α-synuclein fibrillation, Gn Rb1 and dihydromyricetin were assessed for their effectiveness on reversing fibrillation. 25 μM of preformed α-synuclein fibrils were incubated at 37° C. in the presence of Gn Rb1 or dihydromyricetin at varying molar ratios (compound: α-synuclein of 6:1, 4:1 and 2:1) for a period of 48 hours. By measuring the Th-T fluorescence counts (FIGS. 7A-7B), the fibril content was estimated at different time points.

[4] = test system: BE(2)-M17 human neuroblastoma cells; experiment: α-synuclein-induced cytotoxicity, MTT cell viability; type: cell-based
Description: BE(2)-M17 human neuroblastoma cells were routinely cultured in Dulbecco's MEM/Nutrient Mix F-12 (1:1) (Gibco BRL, Rockville, Md.) containing 15% fetal bovine serum and 1% penicillin-streptomycin (P/S; 100 U/ml penicillin, […]). The cells were maintained at 37° C. in a humidified incubator with 5% CO2/95% air.
BE(2)-M17 cells suspended in DMEM medium were plated at a density of 15,000 cells (100 μL/well) in a 96-well plate. After 24 hours, the medium was replaced with 200 μL of OPTI-MEM (Gibco-USA) serum-free medium containing aged α-synuclein solutions with or without the compounds. Aged α-synuclein and compound-containing solutions were diluted in OPTI-MEM to obtain the desired concentration. Cells were then incubated at 37° C. in 5% CO2 for 48 hours. A total of 20 μL of MTT (3-(4,5-dimethylthiazol-2-yl)-2,5-diphenyltetrazolium bromide) (Sigma-Aldrich, USA) (6 mg/ml) in PBS was dispensed into each well, and the plate was incubated at 37° C. for 4.5 hours. The MTT-containing medium was carefully removed, and 100 μL of lysis buffer (15% SDS, 50% N,N-dimethylformamide, pH 4.7) was added to each well. The lysis buffer was incubated overnight at 37° C. before the absorbance values at 590 nm were determined by a microplate reader (Perkin Elmer).
BE(2)-M17 human neuroblastoma cells were treated with aged α-synuclein solutions at three different concentrations, 0.5 μM, 1 μM and 5 μM, either alone or in the presence of Gn Rb1, salvianolic acid B or dihydromyricetin.
The viability of cells treated with α-synuclein aged in the presence or absence of the Gn Rb1, salvianolic acid B or dihydromyricetin was determined by the MTT assay. Prior to the experiments, the effect of the Gn Rb1, salvianolic acid B and dihydromyricetin alone on cell viability was assessed (data not shown), employing the same non-toxic Gn Rb1, salvianolic acid B and dihydromyricetin concentrations that were later employed for the experiments with aged α-synuclein.

[5] = 5 μM aged α-synuclein, all concentrations of compound, 48 hours, MTT
[6] = after 5 days of incubation, read-out: inhibition of α-synuclein fibrillation (Th-T fluorescence)

SMILES	inhibition percentage of α-synuclein fibrillation (Th-T fluorescence) (α-synuclein [1]; 2 days of incubation, 37° C., all tested concentrations)	reduction of α-synuclein fibrillation (Th-T fluorescence) (α-synuclein [1]; after 5 days of incubation, all tested concentrations)	TEM appearance of seeded α-synuclein with compound (α-synuclein [2]; after 6 h of incubation, compound 50 μM)	inhibition of the seeding process (α-synuclein [2]; compound 10 μM)	inhibition of the seeding process (α-synuclein [2]; compound 50 μM)	effect on preformed α-synuclein fibrils (Th-T counts) [3]	Th-T counts as fraction of the Th-T counts of the control ([3]; after 4 hours of incubation, ratios 6:1, 4:1, 2:1)	improvement of viability of the cells ([4]; 1 μM aged α-synuclein, all used concentrations of compound, MTT)	cells surviving [4, 5]	increase in viability of the cells [4, 5]	inhibition of α-synuclein fibrillation (Th-T fluorescence) (α-synuclein [1]; compound 25 μM, after 5 days of incubation)	inhibition at 50 µM (α-synuclein [1]; [6])	inhibition at 100 µM (α-synuclein [1]; compound 100 μM, after 5 days of incubation, read-out: inhibition of α-synuclein fibrillation (Th-T fluorescence))	inhibition at 50 µM (α-synuclein [2]; compound 50 μM)	improvement of cell viability ([4]; highest concentration, molar ratio of 4:1, MTT)	inhibition at 25 µM (α-synuclein [1]; compound 25 μM, after 5 days of incubation, read-out: inhibition of α-synuclein fibrillation (Th-T fluorescence))	inhibition of α-synuclein fibrillation (Th-T fluorescence) (α-synuclein [1]; compound 100 μM, after 5 days of incubation)	cells survived ([4]; α-synuclein aged with compound at molar ratios of 4:1 and 2:1, MTT)
CC(C)=CCC[C@](C)(O[C@@H]1O[C@H](CO[C@@H]2O[C@H](CO)[C@@H](O)[C@H](O)[C@H]2O)[C@@H](O)[C@H](O)[C@H]1O)[C@H]1CC[C@]2(C)[C@@H]1[C@H](O)C[C@@H]1[C@@]3(C)CC[C@H](O[C@@H]4O[C@H](CO)[C@@H](O)[C@H](O)[C@H]4O[C@@H]4O[C@H](CO)[C@@H](O)[C@H](O)[C@H]4O)C(C)(C)[C@@H]3CC[C@]12C [Gn Rb1, ginsenoside Rb1]	approximately 90%	approximately 80%	mostly globular forms of α-synuclein	approximately 60%	approximately 90%	disaggregated in a dose-dependent fashion	⅕	approximately 30%	approximately 80%	approximately 30%								
O=C1c2c(O)cc(O)cc2O[C@H](c2cc(O)c(O)c(O)c2)[C@H]1O [dihydromyricetin]				showed an inhibitory effect		disaggregated preformed α-synuclein fibrils in a dose-dependent fashion					failed to inhibit fibrillation	40%	80%	~90%	approximately 10%			
O=C(/C=C/c1ccc(O)c2c1[C@H](C(=O)O[C@H](Cc1ccc(O)c(O)c1)C(=O)O)[C@@H](c1ccc(O)c(O)c1)O2)O[C@H](Cc1ccc(O)c(O)c1)C(=O)O [salvianolic acid B]				to a smaller extent								~80%		~90%		~35%	completely abolished	approximately 95%
